{
  "source": "patent US9758559B2",
  "about": "“Short peptides derived from VDAC1, compositions and methods of use thereof” (B.G. NEGEV TECHNOLOGIES AND APPLICATIONS LTD., AT …, priority 2013, dated 2017)",
  "key": {"[1]": {"test_system": "rat glioblastoma cells (C6)", "experiment": "Cell death of C6 cells, PI staining and flow cytometry", "format": "cell-based", "settings": "6 h, serum-free medium, PI-positive cells", "procedure": "(§1) The efficacy of the peptide comprising amino acids […] of the N-terminal domain of VDAC1, synthesized with D-amino acids (all D-stereomeric peptide) conjugated to the Antp sequence also synthesized from D-amino acids as a CPP (D-Δ(1-14) N-Ter-Antp, SEQ ID NO:9) was further examined for its activity of inducing cell death with brain tumor derived cell lines. Human primary glioblastoma cells (U-87), human neuroblastoma cells (SH-SY5Y) and rat glioblastoma cells (C6) were incubated (4×10^5 cells) for 6 h in a serum-free-medium containing different concentrations of D-Δ1-14N-Ter-Antp (SEQ ID NO:9). The previously disclosed LP4 peptide conjugated to Tf (Tf-D-LP4 peptide, SEQ ID NO:20) was used as a reference of activity. At the end of the incubation time the cells were stained with PI and the level of cell death, reflected by the percentage of PI-positive cells, was determined by flow cytometry."}, "[2]": {"test_system": "glioblastoma cell line U-87", "experiment": "Cytochrome c release from mitochondria to cytosol (immunoblot)", "format": "cell-based, human", "settings": "U-87 cells, concentration-dependent", "procedure": "Release of cytochrome c (Cyt c) from mitochondria to the cytosol was measured by immunoblots. Cells were incubated for 5 h with the indicated concentration of the peptide, harvested, washed twice with PBS and gently resuspended in ice-cold buffer (100 mM KCl, 2.5 mM MgCl2, 250 mM sucrose, 20 mM HEPES/KOH pH 7.5, 0.2 mMEDTA, 1 mM dithiothreitol, 1 μg/ml leupeptin, 5 μg/ml cytochalasin B and 0.1 mM phenylmethylsulfonyl fluoride) containing 0.025% digitonin and incubated for 10 min on ice. Samples were centrifuged at 10,000 g at 4° C. for 5 min to obtain the supernatants (cytosolic extracts free of mitochondria) and the pellets (fraction that contains mitochondria). The supernatants were analyzed by SDS-PAGE and immunoprobed using anti-Cyto c antibodies (1:2000, BD Pharmingen™ Cat #556433), and then with secondary horseradish peroxidase (HRP)-conjugated anti-mouse antibodies.\nThe effect of D-Δ(1-14) N-Ter-Antp on apoptosis was examined in the glioblastoma cell line U-87. U-87 cells were incubated with and without the peptide, treated with digitonin (0.02%) and the release of cytochrome c from mitochondria to the cytosolic fraction was analyzed by immunoblotting."}, "T-Rex-293 cells": {"test_system": "T-Rex-293 cells", "format": "cell-based", "source_text": "(§2) Data represent mean values, n=3.\n(§3) It was previously disclosed that peptide Antp-LP4 (SEQ ID NO:23) derived from another part of VDAC1, selectively induce cell death of cancerous cells co-expressing the cell surface markers CD19 and CD5 (U.S. Pat. No. 8,648,045) as well as other cancer cells as HeLa."}, "[3]": {"test_system": "human prostate cancer cell lines (PC3)", "format": "cell-based", "source_text": "as §2, §3"}, "[4]": {"test_system": "Human primary glioblastoma cells (U-87)", "experiment": "Cell death of U-87 cells, PI staining and flow cytometry", "format": "cell-based", "settings": "6 h, serum-free medium, PI-positive cells; read-out: IC50, cell death, U87", "procedure": "as §1"}, "MEC-1 cells": {"test_system": "MEC-1 cells", "format": "cell-based", "settings": "90 min incubation, serum-free medium, PI staining, FACS, read-out: IC50, induction of cell death, MEC-1", "procedure": "MEC-1, MO1043 and T-Rex-293 cells were grown in DMEM supplemented with 10% FCS, 2 mM L-glutamine, 1000 U/ml penicillin and 1 mg/ml streptomycin, U-87, C6 and PC3 were maintained in RPMI 1640 supplemented with 10-20% FCS, 2 mM L-glutamine, 1000 U/ml penicillin and 1 mg/ml streptomycin. All cells were maintained in a humidified atmosphere with 5% CO2 at 37° C.\nPBMCs (4×10^5 or 8×10^5 cells/sample) were incubated in 200 μl serum-free medium with the examined peptide for 90 min at room temperature and centrifuged (500×g, 5 min) Cell death was analyzed by PI staining and flow cytometer (Beckton-Dickinson) and BD Cell Quest Pro software. Apoptotic cell death was also analyzed by PI and annexin V-FITC staining (Zaid H et al. 2005. 12:751-760), and by acridine orange and ethidium bromide staining and confocal microscopy (Olympus 1×81).\nTo optimize the VDAC1 N-terminal derived peptides with respect to stability, length and specific targeting to cancer cells, several versions of these peptides were designed and tested for their efficacy in inducing the death of CLL-derived lymphocytes and MEC-1 cells (Table 3). Cells were incubated for 90 min with increasing concentrations of the indicated peptide and death was analyzed by PI stating and FACS as described hereinabove. As is clearly shown in FIG. 1 (and Table 3), deleting 6 residues from the C-terminus of the peptide, including the GXXXG motif, yielded a non-active peptide (peptide Δ(21-26) N-Ter-Antp, SEQ ID NO:22)."}, "[5]": {"test_system": "human neuroblastoma cells (SH-SY5Y)", "experiment": "Cell death of SH-SY5Y cells, PI staining and flow cytometry", "format": "cell-based", "settings": "6 h, serum-free medium, PI-positive cells", "procedure": "as §1"}, "[6]": {"test_system": "glioblastoma xenografts (U87 cells)", "experiment": "Tumor growth of U87 glioblastoma xenografts in nude mice", "format": "in vivo", "settings": "xenografts injected with 10 μl of 20 or 40 μM solutions", "procedure": "U87 cells were inoculated into male nude mice (7×10^6 cells/mouse). Tumor volumes were monitored (using a digital caliper) and on day 11, the mice were divided into […] (5 mice per group), with each mouse containing a tumor with a volume between 100-200 mm^3 and similar average volumes measured per group. The four mice groups were subjected to the following treatments: Xenografts were injected with 0.26% DMSO (control), with D-Δ1-14N-Ter-Antp (10 μl of 20 or 40 μM solutions) or with the previously disclosed Tf-LP4 peptide (10 μl of a 20 μM solution)."}, "glioblastoma U-87 cells": {"test_system": "glioblastoma U-87 cells", "experiment": "ATP quantification (CellTiter-Glo)", "format": "cell-based, human", "settings": "3 h incubation", "procedure": "U-87 cells were seeded in 96-well plates (2×10^6/ml), incubated for 3 h with the indicated concentrations of D-Δ1-14N-Ter-Antp (SEQ ID NO:9), washed twice with PBS and incubated with the CellTiter-Glo reagent (Promega). Luminescence was recorded using an Infinite M1000 microplate reader (Tecan Trading, Mannedorf, Switzerland).\nVDAC1 is a key component in regulating the energy production of the cell. It is known that cancer cells are characterized by elevated energy demand. The effects of D-Δ(1-14) N-Ter-Antp on the mitochondrial inner membrane polarization and cellular ATP level were examined using glioblastoma U-87 cells. U-87 cells were incubated for 3 h with the various concentrations of D-Δ1-14N-Ter-Antp or with FCCP (10 μM, control for depolarization) for 1 h."}},
  "note": "Where a SMILES comes first, the peptide text is derived from it. [ ]: non-standard residue; d: D form.",
  "data": [
    {"smiles": "CC[C@@H](C)[C@@H](NC(=O)[C@@H](CCCCN)NC(=O)[C@H](NC(=O)[C@@H](CCC(N)=O)NC(=O)[C@@H](CCCNC(=N)N)NC(=O)[C@@H](CC(C)C)NC(=O)CNC(=O)[C@@H](Cc1ccccc1)NC(=O)CNC(=O)[C@@H](Cc1ccc(O)cc1)NC(=O)CNC(=O)[C@@H](CCCCN)NC(=O)[C@H](NC(=O)[C@@H](Cc1ccccc1)NC(=O)[C@H](NC(=O)[C@@H](CC(=O)O)NC(=O)[C@H](N)CCCNC(=N)N)C(C)C)[C@H](C)O)[C@H](C)CC)C(=O)N[C@H](Cc1c[nH]c2ccccc12)C(=O)N[C@H](Cc1ccccc1)C(=O)N[C@H](CCC(N)=O)C(=O)N[C@H](CC(N)=O)C(=O)N[C@H](CCCNC(=N)N)C(=O)N[C@H](CCCNC(=N)N)C(=O)N[C@H](CCSC)C(=O)N[C@H](CCCCN)C(=O)N[C@H](Cc1c[nH]c2ccccc12)C(=O)N[C@H](CCCCN)C(=O)N[C@H](CCCCN)C(=O)O", "note": "[D-Δ(1-14) N-Ter-Antp, ALL D-RDVFTKGYGFGL RQIKIWFQNRRMKWKK] (H-[dR][dD][dV][dF][dT][dK]G[dY]G[dF]G[dL][dR][dQ][dI][dK][dI][dW][dF][dQ][dN][dR][dR][dM][dK][dW][dK][dK]-OH)", "values": [
      {"measurement": "IC50", "setting": "[1]", "result": 5.3, "unit": "µM"},
      {"measurement": "release of cytochrome c from the mitochondria", "setting": "[2]", "result": "significantly induced"},
      {"measurement": "induction of cell death, in words", "setting": "T-Rex-293 cells; T-Rex-293 control cells", "result": "some induction of cell death"},
      {"measurement": "IC50", "setting": "T-Rex-293 cells; non-malignant cells TRex-293, read-out: IC50, cell death, non-malignant cells TRex-293", "result": "> 14.3", "unit": "µM"},
      {"measurement": "induction of cell death, in words", "setting": "[3]; PC3 cells", "result": "dramatic cell death"},
      {"measurement": "IC50", "setting": "[3]; prostate cell line PC3, read-out: IC50, cancer cell death, PC3", "result": 1.51, "unit": "µM"},
      {"measurement": "IC50", "setting": "[4]", "result": 3.75, "unit": "µM"},
      {"measurement": "IC50", "setting": "MEC-1 cells", "result": "2.1 ± 0.3", "unit": "µM"},
      {"measurement": "IC50", "setting": "[5]", "result": 2.05, "unit": "µM"},
      {"measurement": "tumor size", "setting": "[6]", "result": "significantly reduced the tumor size"},
      {"measurement": "cellular ATP level", "setting": "glioblastoma U-87 cells", "result": "almost complete reduction of cellular ATP level"}
    ]}
  ]
}
